Test results as given in patent US20060035901A1, “Methotrexate derivatives useful for treating cancer and arthritis” (Serenex, Inc., priority 2004, published 2006).

Key:
EGFR = EGFR (Homo sapiens, UniProt P00533); assay: Elution of EGFR from ATP-Sepharose column by compound (Proteome Mining), IC50 estimate; format: binding; conditions: estimated from percent of protein eluted from ATP-Sepharose column, gel densitometry; read-out: Approximate IC50 for EGFR
Protocol: A proteome containing a known quantity of Her2, EGFR, and B-Raf was run over an ATP-Sepharose™ column in order to bind all purine-binding proteins. See, WO 00/63694 and U.S. Provisional Application No. 60/453,697 filed Jan. 22, 2003, each of which is incorporated by reference in its entirety. The ATP-Sepharose™ was washed several times, and then eluted with the compound of Formula III. The experiment was run in duplicate at concentrations of 20 μM, 100 μM, and 500 μM of the compound of Formula III. The eluted fractions were run on a 1-dimensional SDS polyacrylamide gel. Gels were stained with a fluorescent stain such as sypro ruby (a highly sensitive fluorescent protein stain that can readily detect less than 1 fmol of total protein, i.e., less than 0.04 ng for a 40 kDa protein). The gels were imaged using a standard flat bed gel imager and the amount of protein estimated by densiometry. The percent of protein eluted from the column at each concentration was determined and IC50 values were calculated from these estimates. Where necessary, the eluted proteins were cut out of the gel, and identified using mass spectral techniques.
These steps were repeated with each of the compounds of Formulas IV-X, MTX, and the c series derivative.

[1] = test system: SK-Mel 5 (skin; melanoma); assay: Cell proliferation assay (WST-1), SK-Mel 5; format: cell-based; conditions: SK-Mel 5 cells
Protocol: (§1) A panel of cancer cell lines was obtained from the DCTP Tumor Repository, National Cancer Institute (Fredrick, Md.) or ATCC (Rockville, Md.). Cell cultures were maintained in Hyclone RPMI 1640 medium (Logan, Utah) supplemented with 10% fetal bovine serum and 20 mM HEPES buffer, pH 7.2, at 37° C., 5% CO2 atmosphere. Cultures were maintained at sub-confluent densities.
(§2) For proliferation assays, cells were seeded with the appropriate medium into 96 well plates at 1,000-2,000 cells per well, depending on cell line, and were incubated overnight. The following day, an amount of test compound, DMSO solution (negative control), or Actinomycin D (positive control) was added to the appropriate wells as 10× concentrated stocks prepared in phosphate buffered saline. The cell plates were then incubated for an additional 2-5 days, dependent on cell line, to allow for proliferation to occur. […] Optical density was determined for each well a 450 nm using a Tecan GniosPro plate reader (RTP, NC). The percentage of cell growth was then determined by comparing the cell growth in the presence of test compounds to the DMSO vehicle control treated cells (100% growth) and […] Actinomycin D treated cells (0% growth).

BT474 (breast cancer) = assay: Cell proliferation assay (WST-1), BT474; format: cell-based; conditions: BT474 cells
Protocol: as §1, §2

[2] = test system: MCF-7 (mammary; adenocarcinoma); assay: Cell proliferation assay (WST-1), MCF-7; format: cell-based; conditions: MCF-7 cells
Protocol: as §1, §2

[3] = test system: T47D (mammary; carcinoma); assay: Cell proliferation assay (WST-1), T47D; format: cell-based; conditions: T47D cells
Protocol: as §1, §2

[4] = test system: NCI-H460 (lung; large cell carcinoma); assay: Cell proliferation assay (WST-1, Cyquant DNA), NCI-H460; format: cell-based; conditions: NCI-H460 cells
Protocol: as §1
as §2, with “saline.” for “saline. The cell plates were then incubated for an additional 2-5 days, dependent on cell line, to allow for proliferation to occur.”
(§3) Immediately after the WST-1 determination, the medium was removed from the NCI-H460 and HUVEC cell lines, and the plates stored at −80° C. Using these assay plates, relative DNA amounts in each well were determined using the Cyquant DNA assay kit from […] (Eugene, Oreg.) following the manufacturer's directions. […]

PC-3 (N/A; carcinoma) = assay: Cell proliferation assay (WST-1), PC-3; format: cell-based; conditions: PC-3 cells
Protocol: as §1, §2

SkBr (breast cancer) = assay: Cell proliferation assay (WST-1), SkBr; format: cell-based; conditions: SkBr cells
Protocol: as §1, §2

[5] = test system: SF-268 (central nervous system; anaplastic astrocytoma); assay: Cell proliferation assay (WST-1), SF-268; format: cell-based; conditions: SF-268 cells
Protocol: as §1, §2

[6] = test system: DMS-114 (N/A; small cell); assay: Cell proliferation assay (WST-1), DMS-114; format: cell-based; conditions: DMS-114 cells
Protocol: as §1, §2

[7] = test system: HT29 (colon; adenocarcinoma, GRIII); assay: Cell proliferation assay (WST-1), HT29; format: cell-based; conditions: HT29 cells
Protocol: as §1, §2

[8] = test system: SR (lymphoma, pleural effusion); assay: Cell proliferation assay (WST-1), SR; format: cell-based; conditions: SR cells
Protocol: as §1, §2

[9] = test system: OVCAR8 (ovarian; adenocarcinoma); assay: Cell proliferation assay (WST-1), OVCAR8; format: cell-based; conditions: OVCAR8 cells
Protocol: as §1, §2

[10] = test system: NCI/ADR Res (breast; adenocarcinoma); assay: Cell proliferation assay (WST-1), NCI/ADR Res; format: cell-based; conditions: NCI/ADR Res cells
Protocol: as §1, §2

[11] = test system: Human umbilical vein endothelial cells (HUVEC); assay: Cell proliferation assay (WST-1, Cyquant DNA), HUVEC; format: cell-based
Protocol: Human umbilical vein endothelial cells (HUVEC) were purchased from Clonetics, a division of Cabrex (Walkersville, Md.). Cultures were established from cryopreserved stocks using Clonetics EGM-2 medium supplemented with 20 mM HEPES, pH 7.2, at 37° C., 5% CO2 atmosphere.
as §2, with “saline.” for “saline. The cell plates were then incubated for an additional 2-5 days, dependent on cell line, to allow for proliferation to occur.”
as §3

[12] = test system: Lncap (prostate; carcinoma); assay: Cell proliferation assay (WST-1), Lncap; format: cell-based; conditions: Lncap cells
Protocol: as §1, §2

[13] = test system: OVCAR-3 (ovarian; adenocarcinoma); assay: Cell proliferation assay (WST-1), OVCAR-3; format: cell-based; conditions: OVCAR-3 cells
Protocol: as §1, §2

Chain of EGFR (P00533 25-1210, species assumed): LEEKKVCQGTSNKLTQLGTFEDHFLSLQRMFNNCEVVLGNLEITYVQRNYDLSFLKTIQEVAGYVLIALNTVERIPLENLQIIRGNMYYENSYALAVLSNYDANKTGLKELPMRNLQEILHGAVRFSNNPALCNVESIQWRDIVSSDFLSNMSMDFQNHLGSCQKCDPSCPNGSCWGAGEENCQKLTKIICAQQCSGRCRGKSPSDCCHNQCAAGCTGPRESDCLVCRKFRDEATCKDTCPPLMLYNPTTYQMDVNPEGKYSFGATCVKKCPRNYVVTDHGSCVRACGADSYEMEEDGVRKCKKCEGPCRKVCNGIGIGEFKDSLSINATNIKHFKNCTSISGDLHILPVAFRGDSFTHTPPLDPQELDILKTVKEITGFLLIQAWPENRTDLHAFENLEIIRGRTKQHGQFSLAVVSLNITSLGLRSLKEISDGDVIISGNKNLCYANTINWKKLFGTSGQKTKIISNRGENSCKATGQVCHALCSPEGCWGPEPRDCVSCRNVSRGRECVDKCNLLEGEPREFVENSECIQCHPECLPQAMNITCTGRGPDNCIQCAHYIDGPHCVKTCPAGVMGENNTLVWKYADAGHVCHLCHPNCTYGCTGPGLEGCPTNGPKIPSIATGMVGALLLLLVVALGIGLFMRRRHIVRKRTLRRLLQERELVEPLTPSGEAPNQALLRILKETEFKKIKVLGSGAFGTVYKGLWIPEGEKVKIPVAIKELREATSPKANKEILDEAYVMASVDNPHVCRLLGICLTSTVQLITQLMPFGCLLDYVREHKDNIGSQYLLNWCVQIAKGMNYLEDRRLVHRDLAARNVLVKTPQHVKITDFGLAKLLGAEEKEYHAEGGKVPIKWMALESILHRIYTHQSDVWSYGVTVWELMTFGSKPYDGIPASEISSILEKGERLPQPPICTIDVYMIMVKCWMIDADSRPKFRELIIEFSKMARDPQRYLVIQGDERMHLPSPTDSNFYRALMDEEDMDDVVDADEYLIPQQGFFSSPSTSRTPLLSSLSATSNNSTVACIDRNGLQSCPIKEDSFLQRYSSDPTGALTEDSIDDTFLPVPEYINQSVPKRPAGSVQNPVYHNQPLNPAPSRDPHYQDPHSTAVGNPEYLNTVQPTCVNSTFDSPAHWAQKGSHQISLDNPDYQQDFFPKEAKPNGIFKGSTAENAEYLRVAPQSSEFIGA

## C#CCN(Cc1cnc2nc(N)nc(N)c2n1)c1ccc(C(=O)NC(CCC(=O)O)C(=O)O)cc1C (centres unmarked) [Formula III, 2-{4-[(2,4-diamino-pteridin-6-ylmethyl)-prop-2-ynyl-amino]-3-methyl-benzoylamino}-pentanedioic acid]
EGFR
  IC50: 5 µM
[1]
  Fold Improvement in Cell Proliferation IC50 Compared to MTX: >4 fold
BT474 (breast cancer)
  Fold Improvement in Cell Proliferation IC50 Compared to MTX: >5 fold
[2]
  Fold Improvement in Cell Proliferation IC50 Compared to MTX: >1 fold
[3]
  Fold Improvement in Cell Proliferation IC50 Compared to MTX: 3 fold
[4]
  Fold Improvement in Cell Proliferation IC50 Compared to MTX: >1 fold
PC-3 (N/A; carcinoma)
  Fold Improvement in Cell Proliferation IC50 Compared to MTX: >1 fold
SkBr (breast cancer)
  Fold Improvement in Cell Proliferation IC50 Compared to MTX: >2 fold
[5]
  Fold Improvement in Cell Proliferation IC50 Compared to MTX: >4 fold
[6]
  Fold Improvement in Cell Proliferation IC50 Compared to MTX: >4 fold
[7]
  Fold Improvement in Cell Proliferation IC50 Compared to MTX: >6 fold
[8]
  Fold Improvement in Cell Proliferation IC50 Compared to MTX: >4 fold
[9]
  Fold Improvement in Cell Proliferation IC50 Compared to MTX: >2 fold
[10]
  Fold Improvement in Cell Proliferation IC50 Compared to MTX: >1 fold
[11]
  Fold Improvement in Cell Proliferation IC50 Compared to MTX: >2 fold
[12]
  Fold Improvement in Cell Proliferation IC50 Compared to MTX: 7 fold
[13]
  Fold Improvement in Cell Proliferation IC50 Compared to MTX: >3 fold
